One compound from patent US7763580B2, “Methods for treating conditions associated with the accumulation of excess extracellular matrix” (University of Utah Research Foundation, priority 1999, dated 2010) can be followed below.

The subject of assay [1] is anti-Thy 1 glomerulonephritis. The assay can be described thus: Glomerular mRNA expression (Northern hybridization). The format is in vivo, Sprague Dawley rats. The settings on record: enalapril alone. How it is done: These experiments were performed on male Sprague Dawley rats (200-250 g) obtained from the Sasco colony of Charles River Laboratories (Wilmington, Mass., USA). Animal housing and care were in accordance with the NIH Guide for the Care and Use of Laboratory Animals, NIH Publication No. 85-23, 1985. Animals were fed a normal protein diet (22% protein, Teklad No. 86 550, Teklad Premier Laboratory Diets, Madison, Wis., USA). Glomerulonephritis was induced by tail vein injection of 2.25 mg/Kg of the monoclonal anti-Thy 1.1 antibody OX-7 (NCCC, Biovest International Inc, Minneapolis, Minn., USA). OX-7 binds to a Thy 1-like epitope on the surface of mesangial cells causing complement-dependent cell lysis followed by fibrotic tissue repair (Bagchus et al., Lab Invest. 55:680-687 (1986)). Control animals were injected with similar volumes of phosphate-buffered saline (PBS). Groups of 8 rats were assigned and treated as outlined in Table 2. […] Changes in mRNA levels were determined by first correcting for the densitometric intensity of 18S for each sample. For comparison, this ratio was set at unity for normal control samples and other lanes on the same gel were expressed as fold increases over this value. […] The percent reduction in disease severity in a treated group was calculated as:

Assay [2] deals with anti-Thy 1 glomerulonephritis. The assay can be described thus: Proteinuria in anti-Thy 1 glomerulonephritis. The settings on record: enalapril monotherapy. The format is in vivo, Sprague Dawley rats. The method, then:
These experiments were performed on male Sprague Dawley rats (200-250 g) obtained from the Sasco colony of Charles River Laboratories (Wilmington, Mass., USA). Animal housing and care were in accordance with the NIH Guide for the Care and Use of Laboratory Animals, NIH Publication No. 85-23, 1985. Animals were fed a normal protein diet (22% protein, Teklad No. 86 550, Teklad Premier Laboratory Diets, Madison, Wis., USA). Glomerulonephritis was induced by tail vein injection of 2.25 mg/Kg of the monoclonal anti-Thy 1.1 antibody OX-7 (NCCC, Biovest International Inc, Minneapolis, Minn., USA). OX-7 binds to a Thy 1-like epitope on the surface of mesangial cells causing complement-dependent cell lysis followed by fibrotic tissue repair (Bagchus et al., Lab Invest. 55:680-687 (1986)). Control animals were injected with similar volumes of phosphate-buffered saline (PBS).
Groups of 8 rats were assigned and treated as outlined in Table 2. Doses of enalapril above […] in drinking water are maximally effective in this model (Peters et al., Kidney Int. 54:1570-1580 (1998)). A dose of […] enalapril was used here. […]
The disease-induced increase in a variable was defined as the mean value for the disease control group minus the mean value of the normal control group. The percent reduction in disease severity in a treated group was calculated as: […]

With `CCOC(=O)[C@H](CCc1ccccc1)N[C@@H](C)C(=O)N1CCC[C@H]1C(=O)O` [enalapril], the “reduction of TGF-β1 mRNA” value in assay [1] is 29%. For the same compound, in assay [2], the “reduction of disease-induced increases in urinary protein” value was found to be 78%.
